Measurements taken from PMC11129182, “Development of Inhibitors, Probes, and PROTAC Provides a Complete Toolbox to Study PARK7 in the Living Cell” (Journal of Medicinal Chemistry, 2024).
Where two headings read alike, the source gives them in different places.

How the values were obtained:
[1] = target: T1, reactive cysteine sites of other proteins in A549 cells (Homo sapiens, UniProt O60664); conditions: 4 h, O60664_C39 Perilipin-3
T1 sequence (O60664 1-434): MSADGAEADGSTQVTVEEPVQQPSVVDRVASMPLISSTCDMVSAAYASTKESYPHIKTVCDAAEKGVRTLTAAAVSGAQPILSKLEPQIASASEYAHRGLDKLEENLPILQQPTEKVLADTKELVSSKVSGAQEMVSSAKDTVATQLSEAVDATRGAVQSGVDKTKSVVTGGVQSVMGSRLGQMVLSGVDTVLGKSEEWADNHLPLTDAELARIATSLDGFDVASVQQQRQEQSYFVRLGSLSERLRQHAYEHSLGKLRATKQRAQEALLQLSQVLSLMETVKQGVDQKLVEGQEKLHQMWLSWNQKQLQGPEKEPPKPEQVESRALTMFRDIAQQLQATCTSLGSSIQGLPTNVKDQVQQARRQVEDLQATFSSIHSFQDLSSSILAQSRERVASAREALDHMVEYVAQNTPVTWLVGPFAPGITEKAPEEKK
Description: (§1) Further, the samples were digested with tosylsulfonyl phenylalanyl chloromethyl ketone (TPCK)-treated trypsin and endoGluC to increase the coverage of protein sequences, especially the PARK7 peptide containing Cys106 residue. Peptides generated by digestion from replicates of each sample were labeled using TMT16-plex to perform tandem mass tag (TMT)-based quantitative proteomics profiling. Following the TMT labeling, all samples were pooled and the peptides conjugated to the DBIA probe were enriched by streptavidin beads and analyzed by LC-MS/MS (Figure 3A). […] All cysteines were represented with the shortest peptide by using the average CR values of all the peptides with the same modified cysteine from the same protein in the same condition.[16],[27],[28]
(§2) A549 cells were seeded into 10 cm plates in 10 mL of media. […] The cells were then washed two times with cold PBS (1 mL per 10 cm plate) and collected by scraping them with a cell scraper. Cells were lysed by sonication in ice-cold PBS and centrifuged at 15,000 rpm for 2 min to remove cell debris. The BCA Gold protein assay (Thermo Fisher Scientific) was performed to determine protein concentration. Each sample (100 μg) was labeled with 500 μM DBIA probe for 1 h in the dark at room temperature (RT). Excess DBIA and disulfide bonds were quenched and reduced, respectively, using 5 mM dithiothreitol (DTT) for 30 min in the dark at RT. Reduced disulfide bonds were alkylated using 20 mM iodoacetamide for 30 min in the dark at RT. […] Digested peptides were labeled with TMTpro16-plex reagents (Thermo Fisher Scientific) in a 1:4 ratio by mass (peptides/TMT reagents) for 1 h at RT. Excess TMT reagent was quenched with 5 μL 6% hydroxylamine for 15 min at RT. All samples were then pooled and lyophilized.
(§3) Nonspecific binding peptides were washed away using the following procedure: 3 × 1 mL of PBS pH 7.4, 2 × 1 mL of PBS with 0.1% SDS pH 7.4, and 3 × 1 mL of HPLC-grade water. DBIA probe-containing peptides were eluted using 700 μL of 50% acetonitrile in 0.1% TFA, lyophilized using a Speedvac, and desalted using a handmade mini-SPE column (10% sorbent material of a Waters, OASIS 1 cm^3 HLB 30 mg cartridge). Column was equilibrated with 200 μL of 90% acetonitrile and 3 × 200 μL of 10 mM NH4HCO3 pH 8.4. The dried sample was dissolved in 200 μL of 10 mM NH4HCO3 pH 8.4, loaded onto the column, washed 3x with 200 μL of 10 mM NH4HCO3 pH 8.4, and eluted into 3 fractions with 150 μL of 10, 20, and 50% acetonitrile (in 10 mM NH4HCO3). Samples were then lyophilized.
(§4) 2.2.04 (www.matrixscience.com) for protein identification. Mascot searches were done with 10 ppm and 0.02 Da deviation for the precursor and fragment mass, respectively, and the enzymes trypsin and EndoGluC was specified, up to three missed cleavages were allowed. Methionine oxidation, acetyl (protein N-term), and DBIA on Cys were set as a variable modification. Carbamidomethyl on Cys and TMTpro on Lys and N-term were set as a fixed modification. Peptides with an FDR <1% were accepted. Peptides were only retained, if they were quantified and if there was exactly one DBIA modification on the peptide. The values for each TMT channel were normalized to the average of the values for the DMSO samples for the same peptide, and these values were named CR. For each peptide, the first entry of the Master Protein Accessions column was chosen as the Master Protein Accession, and the residue number of the cysteine modified by DBIA within the entire protein sequence was determined. Using this information, each peptide was assigned an identifier consisting of the Master Protein Accession and the residue number of the modified cysteine to assign each peptide to the respective modified cysteine residue. Within each replicate, CR values for all peptides with the same identifier (and thus the same modified cysteine residue) were combined by averaging and only the shortest Annotated Sequence was kept as the final Annotated Sequence.

[2] = target: reactive cysteine sites of other proteins in A549 cells (Homo sapiens, UniProt P04080); conditions: 4 h, P04080_C3 Cystatin-B
Description: as §1, §2, §3, §4

[3] = target: reactive cysteine sites of other proteins in A549 cells (Homo sapiens, UniProt P40222); conditions: 4 h, P40222_C87 Alpha-taxilin
Description: as §1, §2, §3, §4

[4] = target: reactive cysteine sites of other proteins in A549 cells (Homo sapiens, UniProt Q13085); conditions: 4 h, Q13085_C1297 Acetyl-CoA carboxylase 1
Description: as §1, §2, §3, §4

reactive cysteine sites of other proteins in A549 cells (Homo sapiens, UniProt P40222), sequence (P40222 whole entry): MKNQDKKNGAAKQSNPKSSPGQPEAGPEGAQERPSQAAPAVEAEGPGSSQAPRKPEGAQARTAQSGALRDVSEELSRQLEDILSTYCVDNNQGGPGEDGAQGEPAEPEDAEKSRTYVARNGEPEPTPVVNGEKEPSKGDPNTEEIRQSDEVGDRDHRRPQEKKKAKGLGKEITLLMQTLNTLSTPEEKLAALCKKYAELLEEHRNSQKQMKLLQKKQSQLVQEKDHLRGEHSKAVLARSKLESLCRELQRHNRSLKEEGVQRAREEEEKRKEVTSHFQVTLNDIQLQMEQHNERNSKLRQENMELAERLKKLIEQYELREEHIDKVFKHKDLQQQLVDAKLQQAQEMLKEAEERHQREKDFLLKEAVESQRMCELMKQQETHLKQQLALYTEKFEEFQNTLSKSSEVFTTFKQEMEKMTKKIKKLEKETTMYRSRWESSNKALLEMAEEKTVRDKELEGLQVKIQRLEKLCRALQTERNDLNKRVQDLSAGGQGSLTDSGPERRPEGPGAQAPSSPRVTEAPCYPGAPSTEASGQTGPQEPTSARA
reactive cysteine sites of other proteins in A549 cells (Homo sapiens, UniProt P04080), sequence (P04080 whole entry): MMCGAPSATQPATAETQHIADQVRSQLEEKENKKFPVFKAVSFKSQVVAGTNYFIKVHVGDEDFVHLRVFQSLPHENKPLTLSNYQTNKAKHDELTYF

For `N#CN1CC[C@@H](C(=O)Nc2nc3c(s2)CN(C(=O)c2cc(-n4ccnn4)ccc2F)CC3)C1` [Compound 84, (R)-1-Cyano-N-(5-(2-fluoro-5-(1H-1,2,3-triazol-1-yl)benzoyl)-4,5,6,7-tetrahydrothiazolo[5,4-c]pyridin-2-yl)pyrrolidine-3-carboxamide], the “Average log2 CR (DMSO/inhibitor)” value ([1]; A549, 0.5 µM) was 0.4419, the “Average log2 CR (DMSO/inhibitor)” value ([1]; A549, 5 µM) was 1.439 and the “Average log2 CR (DMSO/inhibitor)” value ([2]; A549, 0.5 µM) was 0.9051. For the same compound, the “Average log2 CR (DMSO/inhibitor)” value ([2]; A549, 5 µM) was 1.676, the “Average log2 CR (DMSO/inhibitor)” value ([3]; A549, 0.5 µM) was 0.7392 and the “Average log2 CR (DMSO/inhibitor)” value ([3]; A549, 5 µM) was 1.414. For the same compound, the “Average log2 CR (DMSO/inhibitor)” value ([4]; A549, 0.5 µM) was 0.6874 and the “Average log2 CR (DMSO/inhibitor)” value ([4]; A549, 5 µM) was 1.886.
